In ChEMBL document CHEMBL3885861, “Open TG-GATES”:

Species: Rattus norvegicus
Assay: Open TG-GATES - Regimen: Daily Repeat
Type: toxicity, organism-based, Sprague-Dawley
Parameters: regimen Daily Repeat, gender Male, age 6 weeks
Settings: in vivo, po, route gavage; for APTT / Bas / Eos / Fbg / Hb / Ht / Lym / MCH / MCHC / MCV / Mono / PT / Plat / RBC / Ret / WBC: tissue Blood; for KIDNEY_L / KIDNEY_R / KIDNEY_TOTAL: tissue Kidney; for ALP / ALT / AST / BUN / CRE / Ca / DBIL / GLC / IP / K / LDH / Na / PL / RALB / TBIL / TC / TG / TP / gamma-GTP: tissue Plasma
[1] = 0 mg/kg, 72 h, dose level Control, time 3 day
[2] = 0 mg/kg, […], dose level Control, time 7 day
[3] = 0 mg/kg, […], dose level Control, time 14 day
[4] = 0 mg/kg, […], dose level Control, time 28 day
[5] = 20 mg/kg, 72 h, dose level Low, time 3 day
[6] = 20 mg/kg, […], dose level Low, time 7 day
[7] = 20 mg/kg, […], dose level Low, time 14 day
[8] = 20 mg/kg, […], dose level Low, time 28 day
[9] = 60 mg/kg, 72 h, dose level Middle, time 3 day

Compound: CC(C)Cc1ccc(C(C)C(=O)O)cc1 (centres undefined) [IBUPROFEN]
- TERMINAL_BW [1]: 222.9 g
- APTT [1]: 20.4 s
- Bas [1]: 0%
- Eos [1]: 1%
- Fbg [1]: 283.4 mg/dL
- Hb [1]: 13.2 g/dL
- Ht [1]: 38.4%
- Lym [1]: 79.8%
- MCH [1]: 22.3 pg
- MCHC [1]: 34.5%
- MCV [1]: 64.7 fL
- Mono [1]: 2.8%
- PT [1]: 15.5 s
- Plat [1]: 111.7 x10_4/uL
- RBC [1]: 593 x10_4/ul
- Ret [1]: 6.7%
- WBC [1]: 110.2 x10_2/uL
- KIDNEY_L [1]: 0.9 g
- KIDNEY_R [1]: 1 g
- KIDNEY_TOTAL [1]: 1.9 g
- ALP [1]: 1697.6 IU/L
- ALT [1]: 44.8 IU/L
- AST [1]: 76.6 IU/L
- BUN [1]: 17.2 mg/dL
- CRE [1]: 0.2 mg/dL
- Ca [1]: 11 mg/dL
- DBIL [1]: 0 mg/dL
- GLC [1]: 200 mg/dL
- IP [1]: 7.7 mg/dL
- K [1]: 4.1 meq/L
- LDH [1]: 208 IU/L
- Na [1]: 141.4 meq/L
- PL [1]: 143.6 mg/dL
- RALB [1]: 3 g/dL
- TBIL [1]: 0.006 mg/dL
- TC [1]: 77 mg/dL
- TG [1]: 84 mg/dL
- TP [1]: 5.5 g/dL
- gamma-GTP [1]: 1.2 IU/L
- TERMINAL_BW [2]: 270 g
- TERMINAL_BW [3]: 304.6 g
- TERMINAL_BW [4]: 398.5 g
- APTT [2]: 21.5 s
- Bas [2]: 0%
- Eos [2]: 0.8%
- Fbg [2]: 292.8 mg/dL
- Hb [2]: 13.1 g/dL
- Ht [2]: 37.3%
- Lym [2]: 80%
- MCH [2]: 21.6 pg
- MCHC [2]: 35%
- MCV [2]: 61.7 fL
- Mono [2]: 2.4%
- PT [2]: 16.1 s
- Plat [2]: 123.8 x10_4/uL
- RBC [2]: 604.6 x10_4/ul
- Ret [2]: 6.7%
- WBC [2]: 126 x10_2/uL
- Bas [3]: 0%
- Eos [3]: 0.6%
- Fbg [3]: 355.2 mg/dL
- Ht [3]: 41.1%
- Lym [3]: 83.8%
- MCHC [3]: 34.7%
- MCV [3]: 59.9 fL
- Mono [3]: 2%
- PT [3]: 16 s
- Plat [3]: 115.8 x10_4/uL
- RBC [3]: 686.2 x10_4/ul
- Ret [3]: 4.9%
- WBC [3]: 104.5 x10_2/uL
- APTT [4]: 21.9 s
- Bas [4]: 0%
- Eos [4]: 1.2%
- Fbg [4]: 340.2 mg/dL
- Hb [4]: 14.8 g/dL
- Ht [4]: 43%
- Lym [4]: 84.4%
- MCH [4]: 19.2 pg
- MCHC [4]: 34.4%
- MCV [4]: 55.9 fL
- Mono [4]: 2.2%
- PT [4]: 16.9 s
- RBC [4]: 768.2 x10_4/ul
- Ret [4]: 2.7%
- KIDNEY_L [2]: 1.1 g
- KIDNEY_R [2]: 1.2 g
- KIDNEY_TOTAL [2]: 2.3 g
- KIDNEY_L [3]: 1.2 g
- KIDNEY_R [3]: 1.2 g
- KIDNEY_TOTAL [3]: 2.4 g
- KIDNEY_L [4]: 1.3 g
- KIDNEY_R [4]: 1.4 g
- KIDNEY_TOTAL [4]: 2.7 g
- ALP [2]: 1943 IU/L
- ALT [2]: 46.8 IU/L
- AST [2]: 76.6 IU/L
- BUN [2]: 18.6 mg/dL
- CRE [2]: 0.2 mg/dL
- DBIL [2]: 0 mg/dL
- GLC [2]: 179.2 mg/dL
- IP [2]: 7.6 mg/dL
- K [2]: 4.2 meq/L
- LDH [2]: 170.2 IU/L
- Na [2]: 138.6 meq/L
- PL [2]: 136.2 mg/dL
- RALB [2]: 3.1 g/dL
- TBIL [2]: 0.004 mg/dL
- TC [2]: 71.2 mg/dL
- TG [2]: 100.8 mg/dL
- TP [2]: 5.5 g/dL
- gamma-GTP [2]: 2.6 IU/L
- ALP [3]: 1425.2 IU/L
- ALT [3]: 37.4 IU/L
- AST [3]: 65.8 IU/L
- BUN [3]: 19.2 mg/dL
- CRE [3]: 0.2 mg/dL
- DBIL [3]: 0 mg/dL
- GLC [3]: 200.4 mg/dL
- IP [3]: 7.7 mg/dL
- K [3]: 4.1 meq/L
- LDH [3]: 118.4 IU/L
- Na [3]: 140.6 meq/L
- PL [3]: 149 mg/dL
- RALB [3]: 3 g/dL
- TBIL [3]: 0.012 mg/dL
- TC [3]: 73.4 mg/dL
- TP [3]: 5.8 g/dL
- gamma-GTP [3]: 2.2 IU/L
- ALP [4]: 1191 IU/L
- ALT [4]: 35.2 IU/L
- AST [4]: 66.2 IU/L
- CRE [4]: 0.2 mg/dL
- DBIL [4]: 0 mg/dL
- GLC [4]: 196 mg/dL
- IP [4]: 6.3 mg/dL
- K [4]: 4.1 meq/L
- LDH [4]: 170.6 IU/L
- Na [4]: 140.8 meq/L
- PL [4]: 144.6 mg/dL
- RALB [4]: 3.2 g/dL
- TBIL [4]: 0.002 mg/dL
- TC [4]: 66.6 mg/dL
- TG [4]: 143.8 mg/dL
- TP [4]: 6.1 g/dL
- gamma-GTP [4]: 3 IU/L
- TERMINAL_BW [5]: 230.1 g
- APTT [5]: 21.4 s
- Bas [5]: 0%
- Eos [5]: 0.6%
- Fbg [5]: 301 mg/dL
- Hb [5]: 13.6 g/dL
- Ht [5]: 39.5%
- Lym [5]: 75.8%
- MCH [5]: 22 pg
- MCHC [5]: 34.3%
- MCV [5]: 64 fL
- Mono [5]: 3%
- PT [5]: 15.5 s
- Plat [5]: 120.5 x10_4/uL
- RBC [5]: 617.6 x10_4/ul
- Ret [5]: 6.7%
- WBC [5]: 117.5 x10_2/uL
- KIDNEY_L [5]: 1 g
- KIDNEY_R [5]: 1 g
- KIDNEY_TOTAL [5]: 2 g
- ALP [5]: 1847.8 IU/L
- ALT [5]: 42.8 IU/L
- AST [5]: 75 IU/L
- BUN [5]: 17.8 mg/dL
- CRE [5]: 0.2 mg/dL
- Ca [5]: 11 mg/dL
- DBIL [5]: 0 mg/dL
- GLC [5]: 182.8 mg/dL
- IP [5]: 7.4 mg/dL
- K [5]: 4.4 meq/L
- LDH [5]: 222 IU/L
- Na [5]: 141.4 meq/L
- PL [5]: 152.6 mg/dL
- RALB [5]: 3.1 g/dL
- TBIL [5]: 0.004 mg/dL
- TC [5]: 81.4 mg/dL
- TG [5]: 113.6 mg/dL
- TP [5]: 5.6 g/dL
- gamma-GTP [5]: 1.2 IU/L
- TERMINAL_BW [6]: 245.9 g
- TERMINAL_BW [7]: 307.6 g
- TERMINAL_BW [8]: 358.8 g
- Bas [6]: 0%
- Eos [6]: 1%
- Fbg [6]: 311 mg/dL
- Hb [6]: 13.6 g/dL
- Ht [6]: 39.4%
- Lym [6]: 75.6%
- MCH [6]: 21.4 pg
- MCHC [6]: 34.6%
- MCV [6]: 61.9 fL
- Mono [6]: 2.8%
- PT [6]: 15.9 s
- Plat [6]: 121 x10_4/uL
- RBC [6]: 638 x10_4/ul
- Ret [6]: 5.8%
- APTT [7]: 24 s
- Bas [7]: 0%
- Eos [7]: 0.8%
- Fbg [7]: 339.6 mg/dL
- Ht [7]: 41%
- Lym [7]: 80.4%
- MCHC [7]: 34.6%
- MCV [7]: 60.2 fL
- Mono [7]: 2.2%
- PT [7]: 15.8 s
- Plat [7]: 116.9 x10_4/uL
- RBC [7]: 682.4 x10_4/ul
- Ret [7]: 4.7%
- WBC [7]: 120.7 x10_2/uL
- Bas [8]: 0%
- Eos [8]: 1.2%
- Fbg [8]: 317.5 mg/dL
- Hb [8]: 14.8 g/dL
- Ht [8]: 43%
- Lym [8]: 78.5%
- MCH [8]: 19.2 pg
- MCHC [8]: 34.5%
- MCV [8]: 55.8 fL
- Mono [8]: 2.5%
- Plat [8]: 98.8 x10_4/uL
- RBC [8]: 771 x10_4/ul
- Ret [8]: 2.8%
- WBC [8]: 94.9 x10_2/uL
- KIDNEY_L [6]: 1.1 g
- KIDNEY_R [6]: 1.1 g
- KIDNEY_TOTAL [6]: 2.1 g
- KIDNEY_L [7]: 1.2 g
- KIDNEY_R [7]: 1.2 g
- KIDNEY_TOTAL [7]: 2.4 g
- KIDNEY_L [8]: 1.3 g
- KIDNEY_R [8]: 1.3 g
- KIDNEY_TOTAL [8]: 2.5 g
- ALP [6]: 1657.2 IU/L
- ALT [6]: 43.6 IU/L
- AST [6]: 73 IU/L
- BUN [6]: 18 mg/dL
- CRE [6]: 0.2 mg/dL
- DBIL [6]: 0 mg/dL
- GLC [6]: 183.4 mg/dL
- IP [6]: 6.8 mg/dL
- K [6]: 4.1 meq/L
- LDH [6]: 167.2 IU/L
- Na [6]: 139.8 meq/L
- PL [6]: 150.8 mg/dL
- RALB [6]: 3 g/dL
- TBIL [6]: 0.004 mg/dL
- TC [6]: 71.6 mg/dL
- TG [6]: 128.2 mg/dL
- TP [6]: 5.6 g/dL
- gamma-GTP [6]: 2.2 IU/L
- ALP [7]: 1385.4 IU/L
- ALT [7]: 45 IU/L
- AST [7]: 73.4 IU/L
- CRE [7]: 0.2 mg/dL
- DBIL [7]: 0 mg/dL
- GLC [7]: 197.2 mg/dL
- IP [7]: 7.2 mg/dL
- K [7]: 3.9 meq/L
- LDH [7]: 129.4 IU/L
- Na [7]: 141.8 meq/L
- PL [7]: 150 mg/dL
- RALB [7]: 3.1 g/dL
- TBIL [7]: 0.006 mg/dL
- TC [7]: 75.4 mg/dL
- TG [7]: 122.6 mg/dL
- TP [7]: 5.7 g/dL
- gamma-GTP [7]: 2.4 IU/L
- ALP [8]: 1303 IU/L
- ALT [8]: 38.8 IU/L
- AST [8]: 67.5 IU/L
- CRE [8]: 0.2 mg/dL
- DBIL [8]: 0 mg/dL
- GLC [8]: 196 mg/dL
- IP [8]: 5.6 mg/dL
- K [8]: 3.7 meq/L
- LDH [8]: 181.8 IU/L
- Na [8]: 142.5 meq/L
- PL [8]: 149.8 mg/dL
- RALB [8]: 3.3 g/dL
- TBIL [8]: 0.005 mg/dL
- TC [8]: 72.5 mg/dL
- TG [8]: 129.5 mg/dL
- TP [8]: 6.1 g/dL
- gamma-GTP [8]: 2.8 IU/L
- TERMINAL_BW [9]: 227 g
- APTT [9]: 20.5 s
- Bas [9]: 0%
